Legend:
Type in all cases: in vivo, human
[1] = test system: patients with chronic schizophrenia; experiment: PANSS general psychopathology subscale score, Clinical Study Four; details: FAS, ANCOVA; for PANSS general psychopathology, Adjusted Mean Change from Baseline (LS mean): LOCF
Description: (§1) METHODOLOGY: This study was a multinational, multicenter, randomized, double-blind, parallel-group, placebo-controlled, fixed-dose study. The study consisted of a 3- to 6-day antipsychotic-free run-in period, after which patients were randomised to 6 months of double-blind treatment with fixed doses of bifeprunox (20 mg/day (BX20) or 30 mg/day (BX30)) or placebo (PBO). Patients allocated to the BX groups were up-titrated from 0.25 mg/day over 7 days (BX20) or 8 days (BX30), and then continued on these doses for the remainder of the study. […] At predetermined time points, blood samples were obtained for drug concentration analysis of BX and its major metabolites (3′- and 4′-sulfate conjugates of BX), and pharmaco-economic assessments were performed.

[2] = Lipid profile and fasting glucose, Clinical Study Four
Description: as §1

[3] = test system: patients with chronic schizophrenia; experiment: Movement rating scales SAS, BAS, AIMS, Clinical Study Four; details: for AIMS total score at Month 6: APTS; for proportion of patients normal with respect to SAS status: Month 6
Description: as §1
The SAS is used to measure Parkinsonian-type symptoms in patients exposed to antipsychotics. The scale consists of 10 items, each rated on a 5-point scale ranging from 0 (complete absence of the condition) to 4 (presence of the condition in extreme form). The SAS total score is defined as the sum of all item scores, and the range is 0 to 40. A SAS total score of up to 3 is considered normal.
The BAS is used to rate observable, restless movements of drug-induced akathisia as well as the subjective awareness of restlessness and any distress associated with the akathisia. The scale consists of 3 items that is rated from 0 (no evidence of akathisia) to 3 (severe akathisia). The BAS total score is defined as the sum of the these three BAS item scores and ranges from is 0 to 9. In addition, a global clinical assessment of akathisia is rated from 0 (no evidence of akathisia) to 5 (severe akathisia).
The AIMS, designed to record the occurrence of dyskinetic movements, consists of 12 items. Items 1 to 7 measure specific involuntary movements on a scale from 0 (none) to 4 (severe). Items 8 to 10 measure global assessment of abnormal movement on a scale from 0 (no awareness) to 4 (aware, severe distress). Items 11 and 12 are questions regarding the dental condition of the patient, with yes/no answers. The total score is calculated by summing AIMS items 1 through 10 and ranges from 0 to 40; the non-global total score is calculated by summing items 1 through 7.

[4] = BX20 (bifeprunox 20 mg), Fasting
[5] = BX20 (bifeprunox 20 mg), Non-fasting
[6] = BX30 (bifeprunox 30 mg), Fasting
[7] = BX30 (bifeprunox 30 mg), Non-fasting

## O=c1[nH]c2cccc(N3CCN(Cc4cccc(-c5ccccc5)c4)CC3)c2o1 [Bifeprunox, 7-[4-([1,1′-biphenyl]-3-ylmethyl)-1-piperazinyl]-2(3H)-benzoxazolone]
[1]; BX20 and BX30
  PANSS general psychopathology subscale scores versus PBO, per-visit LOCF analysis: statistically significantly superior to PBO from Week 9 onwards
[1]; Month 6, listed as BX20
  PANSS general psychopathology, Adjusted Mean Change from Baseline (LS mean): 0.4
[1]; Month 6, listed as BX30
  PANSS general psychopathology, Adjusted Mean Change from Baseline (LS mean): 0.8
[1]; Week 6, listed as BX20
  PANSS general psychopathology, Adjusted Mean Change from Baseline (LS mean): −1.2
[1]; Week 6, listed as BX30
  PANSS general psychopathology, Adjusted Mean Change from Baseline (LS mean): −0.4
[2]; BX20
  adjusted mean fasting glucose increase from baseline to Month 6: 0.13 mmol/L
[2]; [4]
  Cholesterol, total, Mean change from baseline to Month 6: -0.18 mmol/L
  HDL, direct, Mean change from baseline to Month 6: 0.07 mmol/L
  LDL, calculated, Mean change from baseline to Month 6: -0.1 mmol/L
  Triglycerides, Mean change from baseline to Month 6: -0.08 mmol/L
  VLDL, calculated, Mean change from baseline to Month 6: -0.03 mmol/L
[2]; [5]
  Cholesterol, total, Mean change from baseline to Month 6: -0.42 mmol/L
  HDL, direct, Mean change from baseline to Month 6: 0.12 mmol/L
  LDL, calculated, Mean change from baseline to Month 6: -0.35 mmol/L
  Triglycerides, Mean change from baseline to Month 6: -0.41 mmol/L
  VLDL, calculated, Mean change from baseline to Month 6: -0.19 mmol/L
[2]; BX20, fasting
  adjusted mean HDL cholesterol change from baseline to Month 6: 0.07 mmol/L
  adjusted mean triglycerides change from baseline to Month 6: -0.16 mmol/L
[2]; BX20, non-fasting
  adjusted mean HDL cholesterol change from baseline to Month 6: 0.08 mmol/L
  adjusted mean triglycerides change from baseline to Month 6: -0.21 mmol/L
[2]; BX30
  adjusted mean fasting glucose increase from baseline to Month 6: 0.09 mmol/L
[2]; [6]
  Cholesterol, total, Mean change from baseline to Month 6: -0.22 mmol/L
  HDL, direct, Mean change from baseline to Month 6: 0.05 mmol/L
  LDL, calculated, Mean change from baseline to Month 6: -0.12 mmol/L
  Triglycerides, Mean change from baseline to Month 6: -0.40 mmol/L
  VLDL, calculated, Mean change from baseline to Month 6: -0.16 mmol/L
[2]; [7]
  Cholesterol, total, Mean change from baseline to Month 6: -0.10 mmol/L
  HDL, direct, Mean change from baseline to Month 6: 0.08 mmol/L
  LDL, calculated, Mean change from baseline to Month 6: -0.12 mmol/L
  Triglycerides, Mean change from baseline to Month 6: 0.06 mmol/L
  VLDL, calculated, Mean change from baseline to Month 6: 0.03 mmol/L
[2]; BX30, fasting
  adjusted mean HDL cholesterol change from baseline to Month 6: 0.07 mmol/L
  adjusted mean triglycerides change from baseline to Month 6: -0.37 mmol/L
[2]; BX30, non-fasting
  adjusted mean HDL cholesterol change from baseline to Month 6: 0.08 mmol/L
  adjusted mean triglycerides change from baseline to Month 6: -0.03 mmol/L
[3]; BX20, Baseline, LOCF
  AIMS score, mean (SD): 1.04 (2.76)
  BAS score, mean (SD): 0.44 (1.10)
  SAS score, mean (SD): 2.27 (3.72)
[3]; BX20, Baseline, OC
  AIMS score, mean (SD): 1.04 (2.76)
  BAS score, mean (SD): 0.46 (1.10)
  SAS score, mean (SD): 2.27 (3.72)
[3]; BX20, Month 6, LOCF
  AIMS score, mean (SD): 1.55 (3.92)
  BAS score, mean (SD): 0.49 (1.25)
  SAS score, mean (SD): 1.22 (2.47)
[3]; BX20, Month 6, OC
  AIMS score, mean (SD): 1.08 (2.13)
  BAS score, mean (SD): 0.17 (0.42)
  SAS score, mean (SD): 0.97 (2.20)
[3]; BX20, Week 6, LOCF
  AIMS score, mean (SD): 1.59 (3.96)
  BAS score, mean (SD): 0.49 (1.21)
  SAS score, mean (SD): 1.43 (2.77)
[3]; BX20, Week 6, OC
  AIMS score, mean (SD): 1.16 (2.55)
  BAS score, mean (SD): 0.36 (0.99)
  SAS score, mean (SD): 1.31 (2.69)
[3]; BX20, OC
  AIMS total score at Month 6: 1.08
[3]; BX20
  proportion of patients normal with respect to SAS status: 89%
[3]; BX30, Baseline, LOCF
  AIMS score, mean (SD): 1.35 (2.79)
  BAS score, mean (SD): 0.45 (1.11)
  SAS score, mean (SD): 2.33 (3.53)
[3]; BX30, Baseline, OC
  AIMS score, mean (SD): 1.35 (2.79)
  SAS score, mean (SD): 2.33 (3.53)
[3]; BX30, Month 6, LOCF
  AIMS score, mean (SD): 2.77 (6.09)
  SAS score, mean (SD): 2.09 (3.64)
[3]; BX30, Month 6, OC
  AIMS score, mean (SD): 0.86 (3.18)
  BAS score, mean (SD): 0.16 (0.65)
  SAS score, mean (SD): 1.16 (2.78)
[3]; BX30, Week 6, LOCF
  AIMS score, mean (SD): 2.83 (6.09)
  BAS score, mean (SD): 0.66 (1.55)
  SAS score, mean (SD): 2.35 (3.87)
[3]; BX30, Week 6, OC
  AIMS score, mean (SD): 1.80 (4.25)
  SAS score, mean (SD): 2.06 (3.41)
[3]; BX30, OC
  AIMS total score at Month 6: 0.86
[3]; BX30
  proportion of patients normal with respect to SAS status: 78%

From patent publication US20090068290A1, “BIFEPRUNOX DOSES FOR TREATING SCHIZOPHRENIA” (priority 2006, published 2009)
